Publication PMC12090193, “Flavonoid carbamate hybrids: design, synthesis, and evaluation as multi-target enzyme inhibitors for Alzheimer's disease” (RSC Advances, 2025)
Read-outs that look alike come from different tables or passages of the source.

Key:
AChE = molecular target: T1, AChE (Homo sapiens, UniProt P22303); assay: AChE inhibition assay (Ellman's method); format: biochemical
T1 construct: purchased Sigma-Aldrich (Germany)
Protocol: The AChE inhibitory activity of the synthesized compounds was determined using Ellman's method, with slight modifications to optimize experimental conditions.[35] The assay was performed following the procedures described in our previous study.[36]

MAGL = molecular target: T2, MAGL (Homo sapiens, UniProt Q99685); assay: biochemical
T2 construct: purchased Finetest (China)
T2 sequence (Q99685 1-303): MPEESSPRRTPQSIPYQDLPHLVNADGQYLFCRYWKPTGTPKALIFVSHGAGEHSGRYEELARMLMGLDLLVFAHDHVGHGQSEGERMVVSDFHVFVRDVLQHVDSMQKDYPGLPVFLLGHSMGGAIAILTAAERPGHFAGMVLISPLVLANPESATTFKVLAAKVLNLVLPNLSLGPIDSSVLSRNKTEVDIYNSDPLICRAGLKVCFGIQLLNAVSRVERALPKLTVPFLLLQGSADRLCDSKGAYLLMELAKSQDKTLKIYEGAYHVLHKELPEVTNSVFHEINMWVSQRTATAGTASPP
Protocol: The MAGL inhibitory activity of the synthesized compounds was assessed using a spectrophotometric assay, employing 4-NPA as a surrogate substrate. The experimental procedure was adapted from a previously published protocol with minor modifications.[37]
The assay was conducted at room temperature using an ELISA reader (EMR-500) with a 96-well plate, with a total reaction volume of 200 μL per well. The reaction system comprised 10 mM tris–HCl buffer (pH 7.2), 1 mM EDTA, and 0.1 mg mL^−1 bovine serum albumin. […] The negative control was prepared by replacing the inhibitor with 10 μL of DMSO. The enzymatic reaction was initiated by adding 40 μL of MAGL enzyme solution (11 ng per well), while the blank control used buffer instead of the enzyme. The reaction mixtures were incubated for 30 minutes, and absorbance was measured at 405 nm. Each sample was tested in triplicate, and IC50 values were determined from the obtained data using GraphPad Prism 8.4.3.

[1] = Ellman's method, read-out: IC50 ± SD AChE
[2] = 4-NPA 100 μM, 30 min, absorbance 405 nm, triplicate, read-out: IC50 ± SD MAGL

T1 sequence (P22303 32-614): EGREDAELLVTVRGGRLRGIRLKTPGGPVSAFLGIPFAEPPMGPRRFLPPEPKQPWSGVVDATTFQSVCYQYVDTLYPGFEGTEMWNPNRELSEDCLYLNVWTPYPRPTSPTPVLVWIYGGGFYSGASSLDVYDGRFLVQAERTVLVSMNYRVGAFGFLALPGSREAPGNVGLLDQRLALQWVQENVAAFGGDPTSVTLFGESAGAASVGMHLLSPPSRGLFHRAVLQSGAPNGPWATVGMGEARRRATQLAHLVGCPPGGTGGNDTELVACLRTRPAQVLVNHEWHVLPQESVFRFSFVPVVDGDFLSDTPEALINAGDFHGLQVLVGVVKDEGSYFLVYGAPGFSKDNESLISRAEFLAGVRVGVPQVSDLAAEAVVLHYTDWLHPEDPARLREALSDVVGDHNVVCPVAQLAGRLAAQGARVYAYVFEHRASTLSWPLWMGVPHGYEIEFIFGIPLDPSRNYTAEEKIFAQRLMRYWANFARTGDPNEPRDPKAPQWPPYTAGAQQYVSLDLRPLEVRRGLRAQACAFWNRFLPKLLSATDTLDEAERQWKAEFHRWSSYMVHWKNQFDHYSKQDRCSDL

SMILES: CCN(C)C(=O)Oc1cc(OC(=O)N(C)CC)c2c(=O)cc(-c3ccccc3)oc2c1 [Compound C6, 4-Oxo-2-phenyl-4H-chromene-5,7-diyl bis(ethyl(methyl)carbamate)]
- IC50 (AChE): > 200 µM
- IC50 (MAGL): > 200 µM

SMILES: CCN(CC)C(=O)Oc1cc(O)c2c(=O)cc(-c3ccccc3)oc2c1 [Compound C3, 5-Hydroxy-4-oxo-2-phenyl-4H-chromen-7-yl diethylcarbamate]
- IC50 (AChE; [1]): 61.8 ± 1.42 µM
- IC50 (MAGL; [2]): 22.9 ± 1.3 µM

SMILES: CCN(CC)C(=O)Oc1ccc(-c2oc3cc(OC(=O)N(CC)CC)cc(O)c3c(=O)c2OC(=O)N(CC)CC)cc1 [Compound K3, 2-(4-((Diethylcarbamoyl)oxy)phenyl)-5-hydroxy-4-oxo-4H-chromene-3,7-diyl bis(diethylcarbamate)]
- IC50 (AChE; [1]): 146 ± 10.4 µM
- IC50 (MAGL; [2]): 61.6 ± 3.01 µM

SMILES: O=c1cc(-c2ccccc2)oc2cc(O)cc(O)c12 [Chrysin, reference compound]
- IC50 (AChE; [1]): 157 ± 11.7 µM
- IC50 (MAGL; [2]): 169 ± 11.4 µM

SMILES: CN(C)C(=O)Oc1cc(OC(=O)N(C)C)c2c(=O)cc(-c3ccccc3)oc2c1 [Compound C2, 4-Oxo-2-phenyl-4H-chromene-5,7-diyl bis(dimethylcarbamate)]
- IC50 (AChE): > 200 µM
- IC50 (MAGL): 96.4 ± 1.54 µM

SMILES: O=c1c(O)c(-c2ccc(O)cc2)oc2cc(O)cc(O)c12 [Kaempferol, reference compound]
- IC50 (AChE): 226 ± 17.9 µM
- IC50 (MAGL; [2]): 189 ± 7.89 µM

SMILES: CN(C)C(=O)Oc1ccc(-c2oc3cc(OC(=O)N(C)C)cc(O)c3c(=O)c2OC(=O)N(C)C)cc1 [Compound K1, 2-(4-((Dimethylcarbamoyl)oxy)phenyl)-5-hydroxy-4-oxo-4H-chromene-3,7-diyl bis(dimethylcarbamate)]
- IC50 (AChE): 100 ± 7.85 µM
- IC50 (MAGL): 126 ± 8.28 µM

SMILES: CCN(C)C(=O)Oc1ccc(-c2oc3cc(OC(=O)N(C)CC)cc(OC(=O)N(C)CC)c3c(=O)c2OC(=O)N(C)CC)cc1 [Compound K6, 2-(4-((Ethyl(methyl)carbamoyl)oxy)phenyl)-4-oxo-4H-chromene-3,5,7-triyl tris(ethyl(methyl)carbamate)]
- IC50 (AChE): > 200 µM
- IC50 (MAGL): 178 ± 9.12 µM

SMILES: CCN(CC)C(=O)Oc1ccc(-c2oc3cc(OC(=O)N(CC)CC)cc(OC(=O)N(CC)CC)c3c(=O)c2OC(=O)N(CC)CC)cc1 [Compound K4, 2-(4-((Diethylcarbamoyl)oxy)phenyl)-4-oxo-4H-chromene-3,5,7-triyl tris(diethylcarbamate)]
- IC50 (AChE; [1]): > 200 µM
- IC50 (MAGL; [2]): > 200 µM

SMILES: CCN(C)C(=O)Oc1cc(O)c2c(=O)cc(-c3ccccc3)oc2c1 [Compound C5, 5-Hydroxy-4-oxo-2-phenyl-4H-chromen-7-yl ethyl(methyl)carbamate]
- IC50 (AChE): 89.4 ± 5.66 µM
- IC50 (MAGL): 46.6 ± 2.23 µM

SMILES: CCN(CC)C(=O)Oc1cc(OC(=O)N(CC)CC)c2c(=O)cc(-c3ccccc3)oc2c1 [Compound C4, 4-Oxo-2-phenyl-4H-chromene-5,7-diyl bis(diethylcarbamate)]
- IC50 (AChE; [1]): > 200 µM
- IC50 (MAGL; [2]): > 200 µM

SMILES: CN(C)C(=O)Oc1ccc(-c2oc3cc(OC(=O)N(C)C)cc(OC(=O)N(C)C)c3c(=O)c2OC(=O)N(C)C)cc1 [Compound K2, 2-(4-((Dimethylcarbamoyl)oxy)phenyl)-4-oxo-4H-chromene-3,5,7-triyl tris(dimethylcarbamate)]
- IC50 (AChE): > 200 µM
- IC50 (MAGL): > 200 µM

SMILES: CCN(C)C(=O)Oc1ccc(-c2oc3cc(OC(=O)N(C)CC)cc(O)c3c(=O)c2OC(=O)N(C)CC)cc1 [Compound K5, 2-(4-((Ethyl(methyl)carbamoyl)oxy)phenyl)-5-hydroxy-4-oxo-4H-chromene-3,7-diyl bis(ethyl(methyl)carbamate)]
- IC50 (AChE): > 200 µM
- IC50 (MAGL): 60.1 ± 4.74 µM

SMILES: CN(C)C(=O)Oc1cc(O)c2c(=O)cc(-c3ccccc3)oc2c1 [Compound C1, 5-Hydroxy-4-oxo-2-phenyl-4H-chromen-7-yl dimethylcarbamate]
- IC50 (AChE): 188 ± 16.2 µM
- IC50 (MAGL): 72.2 ± 5.34 µM
